Experimental data from patent publication US9200008B2 (ASKA PHARMACEUTICAL CO., LTD., priority 2010, dated 2015).

Test system: Human prostate cancer cell lines (PC-3 cells)
Experiment: Measurement of cell death-inducing activity (Test Example 1)
Format: cell-based
Conditions: PC-3, 48 h, 48 hours after addition, tested at 10, 1, 0.1, 0.025 and 0.00625 μmol/L, qualitative evaluation of 10 fields, read-out: Concentration showing the cell death-inducing activity (cell death-inducing rate not less than 40%)
Method: The cell death-inducing activity of the compound represented by the formula (1) or the salt thereof was measured as follows.
Human prostate cancer cell lines (PC-3 cells) were seeded to 6-well plates at 1×10^5 cells/2 mL/well, and cultured in the presence of 5% CO2 at 37° C. for 48 hours. Thereafter, each compound was added thereto so as to provide 10, 1, 0.1, 0.025 and 0.00625 μmol/L. As a control, DMSO was added. After the addition, the cells were continuously cultured for 48 hours. […] When the cell death-inducing rate was not less than 40%, the compound was judged to have the cell death-inducing activity.

SMILES | minimal effective concentration [µM]
CCn1ncc2cc(COC(=O)Nc3sc(-c4ccc(C)cc4C)nc3C)ccc21 [Example 9-139] | 0.025
Cn1nc2c(c1NC(=O)OCc1ccc3c(cnn3C)c1)COc1ccccc1-2 [Example 9-324] | 10
COc1cc(Cl)ccc1-c1nc(C)c(NC(=O)OCc2ccc3c(c2)nc2n3CC(O)C2)s1 (centres unmarked) [Example 9-340] | 0.025
Cc1cc(F)ccc1-c1nc(C)c(COC(=O)Nc2ccc3c(c2)nc2n3CCCC2)s1 [Example 13-34] | 0.025
Cc1cc(/C=N/NC(=O)c2cc(-c3ccc(Cl)cc3)n[nH]2)cc(C)c1O [Example 21-21] | 1
Cc1nc(-c2sccc2Cl)sc1NC(=O)OCc1ccc2c(c1)ncn2C [Example 9-192] | 1
COc1cc(Cl)ccc1-c1cc(COC(=O)Nc2ccc3c(c2)nc2n3CCOC2)nn1C [Example 13-144] | 10
CCc1ccccc1-c1nc(C)c(NC(=O)OCc2ccc3nn(C)cc3c2)s1 [Example 9-142] | 0.1
Cc1ccc(-c2nc(C)c(COC(=O)Nc3ccc4c(c3)nc3n4CCC3)s2)c(C)c1 [Example 13-28] | 0.025
CCn1cnc2cc(COC(=O)Nc3c(C)c(-c4ccc(Cl)cc4OC)nn3C)ccc21 [Example 9-313] | 10
CCn1cc2ccc(COC(=O)Nc3cc(-c4ccc(C)cc4C)nn3CC)cc2n1 [Example 9-305] | 1
CCc1nc(-c2ccc(F)cc2OC)sc1NC(=O)OCc1ccc2c(cnn2CC)c1 [Example 9-360] | 0.025
COc1ccccc1-c1nc(C)c(C(=O)N/N=C/c2ccc3[nH]ccc3c2)s1 [Example 23-90] | 0.1
CCc1nc(-c2ccc(Cl)cc2C)sc1NC(=O)OCc1ccc2c(c1)ncn2CC [Example 9-345] | 0.025
Cc1cc(F)ccc1-c1nc(C)c(NC(=O)OCc2ccc3nn(C)cc3c2)s1 [Example 9-149] | 1
CCn1nc(-c2ccc(F)cc2OC)cc1COC(=O)Nc1ccc2c(c1)nc1n2CCC1 [Example 13-107] | 0.025
C/C(=N\N=C\c1cc(C)c(O)c(C)c1)c1sc(-c2ccc(Cl)cc2)nc1C [Example 30-1, 4-{[1-[2-(4-Chlorophenyl)-4-methylthiazol-5-yl]ethylidene]hydrazonomethyl}-2,6-dimethyl-phenol] | 10
Cc1cc(/C=N/NC(=O)c2sc(C3CCCCC3)nc2C)cc(C)c1O [Example 23-129] | 10
Cc1cccnc1-c1nc(C)c(NC(=O)OCc2ccc3c(c2)ncn3C)s1 [Example 9-195] | 10
COc1ccc(-c2cc(NC(=O)OCc3ccc4c(c3)ncn4C)n(C)n2)cc1OC [Example 9-231] | 1
COc1ccc(/C=N/NC(=O)c2sc(-c3csc4ccccc34)nc2C)cc1O [Example 23-38] | 1
CCn1nc(-c2ccc(Cl)cc2OC)cc1NC(=O)OCc1ccc2c(c1)ncn2C [Example 9-222] | 0.00625

SMILES | minimal effective concentration [µM]
Cc1ccc(-c2cc(COC(=O)Nc3ccc4c(cnn4C)c3)n(C)n2)c(C)c1 [Example 13-131] | 1
COc1cc(Cl)ccc1-c1nc(C)c(C(=O)NN(C)Cc2ccc3c(c2)CCO3)s1 [Example 16-18] | 1
CCn1nc(-c2ccc(Cl)cc2OC)cc1COC(=O)Nc1ccc2c(cnn2C)c1 [Example 13-128] | 1
COc1ccc(/C=N/NC(=O)c2sc(-c3cccc(Cl)c3C)nc2C)cc1O [Example 23-125] | 1
CCc1nc2cc(COC(=O)Nc3sc(-c4ccc(Cl)cc4OC)nc3C)ccc2n1C [Example 9-82] | 0.025
CCc1nc(-c2ccc(Cl)cc2OC)sc1NC(=O)OCc1ccc2c(c1)ncn2C [Example 9-181] | 0.00625
CCn1nc(-c2ccc(C)cc2C)cc1NC(=O)OCc1ccc2nn(C)cc2c1 [Example 9-296] | 1
COCc1nc2cc(COC(=O)Nc3cc(-c4ccc(Cl)cc4OC)nn3C)ccc2n1C [Example 9-274] | 1
COc1ccc(/C=N/NC(=O)c2sc(-c3ccccc3OC)nc2C)cc1F [Example 23-68] | 0.1
Cc1ccc(-c2nc(C)c(COC(=O)Nc3ccc4c(c3)nc3n4CCCC3)s2)c(C)c1 [Example 13-33] | 0.1
CCn1cc2cc(COC(=O)Nc3sc(-c4ccccc4OC)nc3C)ccc2n1 [Example 9-152] | 0.1
COc1ccc(COCC(=O)c2sc(-c3ccc(C)cc3C)nc2C)cc1 [Example 31-1, 1-[2-(2,4-Dimethylphenyl)-4-methylthiazol-5-yl]-2-(4-methoxybenzyloxy)ethanone] | 10
COc1cc(C)ccc1-c1cc(NC(=O)OCc2ccc3c(c2)nc2n3CCC2)n(C)n1 [Example 9-261] | 0.025
CCc1nc(-c2ccc(F)cc2C)sc1NC(=O)OCc1ccc2c(c1)nc1n2CCCC1 [Example 9-355] | 1
COCc1nc2cc(NC(=O)OCc3cc(-c4ccc(C)cc4OC)nn3C)ccc2n1C [Example 13-93] | 1
COc1cc(Cl)ccc1-c1cc(COC(=O)Nc2ccc3c(c2)nc2n3CCOC2)n(C)n1 [Example 13-99] | 0.00625
CCn1ncc2cc(COC(=O)Nc3sc(-c4ccc(Cl)cc4OC)nc3C)ccc21 [Example 9-136] | 0.00625
COc1ccccc1-c1cc(NC(=O)OCc2ccc3c(c2)ncn3C)n(C)n1 [Example 9-213] | 0.025
COc1cc(Cl)ccc1-c1cc(NC(=O)OCc2ccc3c(cnn3C)c2)n(C)n1 [Example 9-280] | 0.00625
COc1ccc(/C=N/NC(=O)c2sc(-c3ccc(Cl)cc3)nc2C)c(Cl)c1O [Example 23-61] | 1
Cc1cc(F)ccc1-c1nc(C)c(COC(=O)Nc2ccc3c(c2)nc2n3CCSC2)s1 [Example 43-1, (3,4-Dihydro-1H-2-thia-4a,9-diazafluoren-7-yl)carbamic acid 2-(4-fluoro-2-methylphenyl)-4-methylthiazol-5-ylmethyl ester] | 0.1
CCn1nc(-c2ccccc2OC)cc1COC(=O)Nc1ccc2c(cnn2C)c1 [Example 13-124] | 10

SMILES | minimal effective concentration [µM]
COc1ccc(/C=N/NC(=O)c2sc(-c3nccc4ccccc34)nc2C)cc1O [Example 23-27] | 10
Cc1ccccc1-c1ncc(C(=O)N/N=C/c2cc(C)c(O)c(C)c2)[nH]1 [Example 25-2, 2-(2-Methylphenyl)-3H-imidazole-4-carboxylic acid[1-(4-hydroxy-3,5-dimethylphenyl)methylidene]hydrazide] | 10
COc1cc(F)ccc1-c1cc(NC(=O)OCc2ccc3c(c2)ncn3C)n(C)n1 [Example 9-217] | 0.025
COc1cc(Cl)ccc1-c1nc(C)c(NC(=O)OCc2cccc(N(C)C)c2)s1 [Example 9-11] | 10
CCn1cnc2cc(COC(=O)Nc3cc(-c4ccc(F)cc4OC)nn3C)ccc21 [Example 9-219] | 0.025
CCn1nc(-c2ccc(Cl)cc2Cl)cc1NC(=O)OC(C)c1ccc2c(c1)ncn2C (centres unmarked) [Example 9-337] | 10
COc1ccc(/C=N/NC(=O)c2cc(-c3ccc(Cl)cc3)oc2C)cc1O [Example 23-166, 5-(4-Chlorophenyl)-2-methylfuran-3-carboxylic acid [1-(3-hydroxy-4-methoxyphenyl)methylidene]hydrazide] | 1
COc1ccc(/C=N/NC(=O)c2sc(-c3cccc4c3OCCO4)nc2C)cc1O [Example 23-154] | 10
Cc1ccc(-c2nc(C)c(NC(=O)OCc3ccc4c(c3)ncn4C)s2)cc1 [Example 9-35] | 0.1
CCn1cnc2cc(COC(=O)Nc3sc(-c4cccc(C)c4)nc3C)ccc21 [Example 9-54] | 1
Cc1cc(F)ccc1-c1nc(C)c(NC(=O)OCc2ccc3c(c2)nc2n3CCC2)s1 [Example 9-106] | 0.025
Cc1cc(/C=N/NC(=O)c2cc(-c3ccc(Cl)cc3)c[nH]2)cc(C)c1O [Example 24-3, 4-(4-Chlorophenyl)-1H-pyrrole-2-carboxylic acid[1-(4-hydroxy-3,5-dimethylphenyl)methylidene]hydrazide] | 0.1
COc1cc(Cl)ccc1-c1nc(C)c(NC(=O)OCc2ccc3c(cnn3C)c2)s1 [Example 9-128] | 0.00625
Cc1cc(Cl)ccc1-c1nc(C)c(C(=O)NNCc2ccc3c(ccn3C)c2)s1 [Example 17-1] | 0.1
COc1cc(Cl)ccc1-c1cc(COC(=O)Nc2ccc3c(c2)nc2n3CCCC2)sn1 [Example 47-7] | 0.00625
CCn1ncc2ccc(COC(=O)Nc3cc(-c4ccc(Cl)cc4OC)nn3C)cc21 [Example 9-298] | 10
CCn1cc2cc(COC(=O)Nc3sc(-c4ccc(F)cc4OC)nc3C)ccc2n1 [Example 9-153] | 0.025
CCn1nc(-c2ccccc2OC)cc1NC(=O)OCc1ccc2c(c1)nc1n2CCCC1 [Example 9-264] | 1
CCn1nc(-c2ccc(C)cc2OC)cc1COC(=O)Nc1ccc2c(cnn2C)c1 [Example 13-130] | 1
COc1ccccc1-c1cc(COC(=O)Nc2ccc3c(c2)nc2n3CCC2)n(C)n1 [Example 13-105] | 0.025
COc1cc(C)ccc1-c1nc(C)c(NC(=O)OCc2ccc3c(cnn3C)c2)s1 [Example 9-129] | 0.00625
